In ChEMBL document CHEMBL1131764, “Solid phase synthesis and biological activities of [Arg8]-vasopressin methylenedithioether” (1999):

Columns and labels:
[1] = test system: Rattus norvegicus; experiment: Antidiuretic test on conscious rats was determined; format: functional, Urine
[2] = organism: Rattus norvegicus; experiment: In vitro biological activity in the absence of magnesium ions was determined in rats by Uterotonic test; format: functional
[3] = organism: Rattus norvegicus; experiment: Vasopressor test using phonoxybenzamine treated male rats was determined; format: functional

| SMILES | Activity [1] [IU mg-1] | Activity [2] [IU mg-1] | Activity [3] [IU mg-1] |
| --- | --- | --- | --- |
| N=C(N)NCCC[C@H](NC(=O)[C@@H]1CCCN1C(=O)[C@@H]1CSSC[C@H](N)C(=O)N[C@@H](Cc2ccc(O)cc2)C(=O)N[C@@H](Cc2ccccc2)C(=O)N[C@@H](CCC(N)=O)C(=O)N[C@@H](CC(N)=O)C(=O)N1)C(=O)NCC(N)=O [VASOPRESSIN] | 465 | 17 | 412 |
| NC(=O)CC[C@@H]1NC(=O)[C@H](Cc2ccccc2)NC(=O)[C@H](Cc2ccc(O)cc2)NC(=O)[C@@H](N)CSCSC[C@@H](C(=O)N2CCC[C@H]2C(=O)N[C@@H](CCCN=C(N)N)C(=O)NCC(N)=O)NC(=O)[C@H](CC(N)=O)NC1=O | 46.5 | 1.4 | 55.3 |
